{"source": "patent US7141648B2", "about": "“Synthesis of cyclosporin analogs” (priority 2001, dated 2006)", "key": {"[1]": {"settings": "for Area under the curve / Cmax: male rabbits, i.v. 10 mg/kg/day, mean ± SD", "procedure": "(§1) On Days 1 and 7, blood samples were collected prior to drug administration and at 0.5, 1, 2, 4, 8, 12, 18, and 24 hours post-dose to generate a pharmacokinetic profile. Other evaluated parameters included clinical observations, body weight, food consumption, hematology, clinical chemistry, gross pathology, and histopathological examination of selected tissues/organs.\nBlood samples were analyzed via high performance liquid chromatography coupled with mass spectrometry (LCMS)."}, "[2]": {"system": "islets from a CBA/J mouse transplanted into diabetic Balb/c mouse recipients", "test": "islet cell allotransplantation mouse model", "settings": "especially apparent at 25 mg/kg/day", "description": "Blood glucose was monitored daily until the time of graft failure, as defined by a glucose level greater than 17 mmol/L on two consecutive days."}, "[3]": {"system": "Male DBA/1 Lac J mice immunized with chick type II collagen", "test": "collagen-induced arthritis model in the mouse", "assay_type": "in vivo", "settings": "for negative erosion scores compared to vehicle treatment group: PIP joint", "method": "Male DBA/1 Lac J mice, kept under virus antibody free conditions, were immunized subcutaneously at 8 to 10 weeks of age with 100 microgram of chick type II collagen, emulsified in Freund's complete adjuvant. […] Animals assigned to the treatment protocol (12/group) were dosed starting on the day of disease onset (˜Day 28) until sacrifice on Day 38.\nEvaluated parameters included mortality, serum creatinine, histology, and outcome assessments, such as clinical scoring (visual), hind paw swelling, histological scoring, erosion scoring, and immunohistochemistry.\nErosion scoring was done in a blinded manner by examining sagittal sections of the proximal interphalangeal (PIP) joint of the middle digit for the presence or absence of erosions (defined as demarcated defects in cartilage or bone filled with inflammatory tissue). This approach allowed for comparisons of the same joint."}, "[4]": {"system": "New Zealand White rabbits immunized with ovalbumin", "test": "antigen-induced arthritis model in the rabbit", "assay_type": "in vivo", "method": "New Zealand White rabbits, maintained under specific pathogen free conditions, were immunized with 10 mg of ovalbumin in saline emulsified with Freund's complete adjuvant that was given intramuscularly and subcutaneously into several sites in the nape of the neck. Fourteen days later, all animals started receiving 2 daily intra-articular injections of 5 mg ovalbumin and 65 ng of human recombinant transforming growth factor 2 in saline.\nAnimals assigned to the treatment protocol (8/group) were dosed starting on the day of disease onset (˜Day 28) until sacrifice on Day 42.\nEvaluated parameters included mortality, body weight, serum creatinine, histology, and outcome assessments such as knee joint swelling, synovial fluid counts, gross postmortem analysis, and histology."}, "[5]": {"system": "hearts transplanted from Wistar Furth rats to Lewis rats", "test": "rat heart transplant model", "assay_type": "in vivo", "description": "If graft dysfunction was noted during the 30-day post-transplantation period, the animal was sacrificed. If the animal survived longer than 30 days post-transplantation, the test and control articles were discontinued and the animal was allowed to continue until graft dysfunction or up to 100 days post-transplantation."}, "rats, dogs, and primates": {"system": "rats, dogs, and primates", "test": "repeated-dose oral toxicity studies", "assay_type": "in vivo"}, "rabbits": {"system": "rabbits", "test": "toxicokinetic/nephrotoxicity study in the rabbit model, 30 days", "procedure": "as §1"}}, "note": "Where two headings read alike, the source gives them in different places.", "data": [{"smiles": "C=C/C=C/C[C@@H](C)[C@@H](O)[C@H]1C(=O)N[C@@H](CC)C(=O)N(C)CC(=O)N(C)[C@@H](CC(C)C)C(=O)N[C@@H](C(C)C)C(=O)N(C)[C@@H](CC(C)C)C(=O)N[C@@H](C)C(=O)N[C@H](C)C(=O)N(C)[C@@H](CC(C)C)C(=O)N(C)[C@@H](CC(C)C)C(=O)N(C)[C@@H](C(C)C)C(=O)N1C", "note": "[ISATX247]", "values": [{"measurement": "pharmacokinetic parameters in female rabbits compared with male rabbits", "setting": "[1]; female rabbits, 10 mg/kg/day, exception: maximum concentration on Day 7", "result": "not significantly different"}, {"measurement": "Area under the curve", "setting": "[1]; Day 1", "result": "5659 ± 1309", "unit": "ng·h/mL"}, {"measurement": "Cmax", "setting": "[1]; Day 1", "result": "1915 ± 149", "unit": "ng/mL"}, {"measurement": "Area under the curve", "setting": "[1]; Day 7", "result": "5697 ± 1373", "unit": "ng·h/mL"}, {"measurement": "Cmax", "setting": "[1]; Day 7", "result": "1959 ± 470", "unit": "ng/mL"}, {"measurement": "toxicity compared to cyclosporine A as the dose level increased", "setting": "[2]", "result": "less toxic than cyclosporine A"}, {"measurement": "negative erosion scores compared to vehicle treatment group", "setting": "[3]; 250 μg/mouse i.p. daily", "result": "higher negative erosion scores"}, {"measurement": "prevention of the development of joint erosions", "setting": "[3]; 500 μg/mouse", "result": "significantly prevent the development of joint erosions"}, {"measurement": "negative erosion scores compared to vehicle treatment group", "setting": "[3]; 500 μg/mouse i.p. daily", "result": "significantly higher"}, {"measurement": "synovial fluid counts", "setting": "[4]; prevention protocol", "result": "significant reductions"}, {"measurement": "synovial histopathological scores compared to vehicle control", "setting": "[4]; prevention protocol, after 28 days of therapy, s.c.", "result": "significant decrease"}, {"measurement": "potency compared to cyclosporine A in treatment and prevention of arthritis", "setting": "[4]; rabbit, in vivo", "result": "equivalent or potentially more potent than cyclosporine A"}, {"measurement": "macroscopic arthritis score", "setting": "[4]; treatment protocol", "result": "significant reduction"}, {"measurement": "synovial histopathological scores of animals with established arthritis compared to vehicle controls", "setting": "[4]; treatment protocol, 14 days of treatment", "result": "Significant amelioration"}, {"measurement": "graft function after discontinuation of dosing", "setting": "[5]; 100 days post-transplant (70 days post discontinuation of dosing), a number of animals", "result": "still had functioning grafts at 100 days post-transplant"}, {"measurement": "increase of survival time over Cyclosporine A", "setting": "[5]; optimal dose of 1.75 mg/kg/day", "result": "approximately 3 fold"}, {"measurement": "only toxicological effect noted in all species", "setting": "rats, dogs, and primates", "result": "diarrhea/loose feces"}, {"measurement": "tolerability", "setting": "rats, dogs, and primates", "result": "well-tolerated"}, {"measurement": "examination of organs, female rabbits", "setting": "rabbits; 15 mg/kg, 3 female rabbits that completed the study", "result": "No changes"}, {"measurement": "examination of organs, male rabbits", "setting": "rabbits; 15 mg/kg, male rabbits", "result": "decrease in spermatogenesis"}, {"measurement": "Percent Change in Serum Creatinine Levels Over Baseline", "setting": "rabbits; male rabbits, 10 mg/kg, Day 15", "result": "+1%"}, {"measurement": "Percent Change in Serum Creatinine Levels Over Baseline", "setting": "rabbits; male rabbits, 10 mg/kg, Day 30", "result": "+10%"}, {"measurement": "Percent Change in Serum Creatinine Levels Over Baseline", "setting": "rabbits; male rabbits, 15 mg/kg, Day 15", "result": "−19", "unit": "%"}, {"measurement": "Percent Change in Serum Creatinine Levels Over Baseline", "setting": "rabbits; male rabbits, 15 mg/kg, Day 30", "result": "−11", "unit": "%"}, {"measurement": "hematological parameters", "setting": "rabbits; rabbits", "result": "No significant changes"}]}]}
